Measured values as given in patent US11535597B2, “Photoreactive ligands and uses thereof” (The Scripps Research Institute, priority 2017, dated 2022).

System: proteins in HEK293T cells
Test: MS-based mapping of FFF probe-modified peptides (isoTOP, sites of labeling)
Assay type: binding, human
Summary of the method: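 Live cells treated with fragment probes (200-250 μM) in serum-free DMEM, with or without competitor ligands. Proteomes clicked to light/heavy biotin-TEV-azide, streptavidin-enriched, trypsin- then TEV-digested; probe-modified peptides identified by LC-MS/MS with any residue allowed as modified site, isoTOP ratios quantified by CIMAGE.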

With `C#CCCC1(CCC(=O)NC23CC4CC(CC(C4)C2)C3)N=N1` [probe 14, N-((3s,5s,7s)-Adamantan-1-yl)-3-(3-(but-3-yn-1-yl)-3H-diazirin-3-yl)propanamide] the “Labeled Peptide of HLA-A HLAC class I histocompatibility antigen, A-2 alpha” value (Accession P01892, residues of probe-labeled peptide, family Uncategorized) was 46-59, the “Labeled Peptide of HMOX2 Heme oxygenase 2” value (Accession P30519 (r933 prints P03519), residues of probe-labeled peptide, family Enzymes) was 69-87 and the “Labeled Peptide of GHITM Growth hormone-inducible transmembrane protein” value (Accession Q9H3K2, residues of probe-labeled peptide, family Uncategorized) was 218-240. For the same compound, the “Labeled Peptide of GOLPH3 Golgi phophoprotein 3” value (Accession Q9H4A6, residues of probe-labeled peptide, family Adapter, Scaffolding, Modulator Proteins) was 75-90, the “Labeled Peptide of HAUS2 HAUS augmin-like complex subunit 2” value (Accession Q9NVX0, residues of probe-labeled peptide, family Adapter, Scaffolding, Modulator Proteins) was 173-189 and the “Labeled Peptide of FUBP1 Far upstream element-binding protein 1” value (Accession Q96AE4, residues of probe-labeled peptide, family Transcription factors, Regulators) was 593-620. For the same compound, the “Labeled Peptide of HAUS1 HAUS augmin-like complex subunit 1” value (Accession Q96CS2, residues of probe-labeled peptide, family Adapter, Scaffolding, Modulator Proteins) was 94-108, the “Labeled Peptide” value (GOLPH3 Golgi phosphoprotein 3, residues of probe-modified peptide) was 75-90 and the “Labeled Peptide” value (HLA-A HLA class I histocompatibility antigen, A-2 alpha, residues of probe-modified peptide) was 46-59. For the same compound, the “Labeled Peptide” value (HMOX2 Heme oxygenase 2, residues of probe-modified peptide) was 69-87, the “Labeled Peptide” value (LIPA Lysosomal acid lipase (P38571), residues of the probe-labeled peptide) was 255-270 and the “Labeled Peptide” value (MAN2B1 Lysosomal alpha-mannosidase (O00754), residues of the probe-labeled peptide) was 291-305. For the same compound, the “Labeled Peptide” value (MCFD2 (Q8NI22), residues of the probe-labeled peptide) was 103-126, the “Labeled Peptide” value (MSH2 (P43246), residues of the probe-labeled peptide) was 848-871 and the “Labeled Peptide” value (MT-ND2 (P03891), residues of the probe-labeled peptide) was 264-272. For the same compound, the “Labeled Peptide” value (NDUFS1 (P28331), residues of the probe-labeled peptide) was 312-325, the “Labeled Peptide” value (NUP160 (Q12769), residues of the probe-labeled peptide) was 638-661 and the “Labeled Peptide” value (NUP205 (Q92621), residues of the probe-labeled peptide) was 1235-1252. The “Labeled Peptide” value (NUP214 (P35658), residues of the probe-labeled peptide) was 770-783, the “Labeled Peptide” value (NUTF2 (P61970), residues of the probe-labeled peptide) was 91-106 and the “Labeled Peptide” value (NXN Nucleoredoxin (Q6DKJ4), residues of the probe-labeled peptide) was 384-403. The “Labeled Peptide” value (P07384 CAPN1 Calpain-1 catalytic subunit) was 175-193, the “Labeled Peptide (residues) of YWHAQ 14-3-3 protein theta” value (P27348, peptide TAFDEAIAELDTLNEDSYK, PDB 5IQP) was 194-212 and the “Labeled Peptide” value (P30519 HMOX2 Heme oxygenase 2) was 69-87. The “Labeled Peptide” value (P30520 ADSS Adenylosuccinate synthetase isozyme 2) was 431-441, the “Labeled Peptide (residues) of PPP1CC Serine/threonine-protein phosphatase PP1-gamma cat” value (P36873, peptide EIFLSQPILLELEAPLK, PDB 4UT2) was 44-60 and the “Labeled Peptide” value (P48729 CSNK1A1 Casein kinase I isoform alpha) was 84-106. For the same compound, the “Labeled Peptide (residues) of RAB7A Ras-related protein Rab-7a” value (P51149, peptide DEFLIQASPR, PDB 1YHN) was 104-113, the “Labeled Peptide” value (P67870 CSNK2B Casein kinase II subunit beta) was 112-134 and the “Labeled Peptide” value (PCNA (P12004), residues of the probe-labeled peptide) was 118-138. For the same compound, the “Labeled Peptide” value (Q8NI60 ADCK3 Chaperone activity of bc1 complex-like, mitochondr) was 277-295, the “Labeled Peptide” value (Q9H4A6 GOLPH3 Golgi phosphoprotein 3) was 75-90 and the “Labeled Peptide (residues) of RUVBL2 RuyB-like 2” value (Q9Y230, peptide ALESDMAPVLIMATNR, PDB 3UK6) was 315-330. The “Labeled Peptide” value (Q13867 BLMH Bleomycin hydrolase) was 111-124, the “Labeled Peptide” value (protein ADCK3 (Q8NI60), residues of probe-labeled peptide) was 277-295 and the “Labeled Peptide” value (protein ADCK3 Chaperone activity of bc1 complex-like, mitochondr, residues of probe-labeled peptide) was 277-295. For the same compound, the “Labeled Peptide” value (protein ADSS (P30520), residues of probe-labeled peptide) was 431-441, the “Labeled Peptide” value (protein ADSS Adenylosuccinate synthetase isozyme 2, residues of probe-labeled peptide) was 431-441 and the “Labeled Peptide” value (protein AGK (Q53H12), residues of probe-labeled peptide) was 283-304. The “Labeled Peptide” value (protein ALDH18A1 (P54886), residues of probe-labeled peptide) was 650-662, the “Labeled Peptide” value (protein ASNA1 (O43681), residues of probe-labeled peptide) was 131-153 and the “Labeled Peptide” value (protein ATP2A2 (P16615), residues of probe-labeled peptide) was 335-352. For the same compound, the “Labeled Peptide” value (protein ATP2B1 (P20020), residues of probe-labeled peptide) was 824-840, the “Labeled Peptide” value (protein ATP2B4 (P23634), residues of probe-labeled peptide) was 812-828 and the “Labeled Peptide” value (protein ATP5B (P06576), residues of probe-labeled peptide) was 407-422. The “Labeled Peptide” value (protein ATP6V1B2 (P21281), residues of probe-labeled peptide) was 437-457, the “Labeled Peptide” value (protein BLMH (Q13867), residues of probe-labeled peptide) was 111-124 and the “Labeled Peptide” value (protein BLMH Bleomycin hydrolase, residues of probe-labeled peptide) was 111-124. For the same compound, the “Labeled Peptide” value (protein CALM3 Calmodulin (P62158), residues of probe-labeled peptide) was 39-75, the “Labeled Peptide” value (protein CALM3 Calmodulin, residues of probe-labeled peptide) was 39-75 and the “Labeled Peptide” value (protein CAPN1 (P07384), residues of probe-labeled peptide) was 175-193. For the same compound, the “Labeled Peptide” value (protein CAPN1 Calpain-1 catalytic subunit, residues of probe-labeled peptide) was 175-193, the “Labeled Peptide” value (protein CCDCC51 (Q96ER9), residues of probe-labeled peptide) was 86-96 and the “Labeled Peptide” value (protein CLPB Caseinolytic peptidase B protein homolog (Q9H078), residues of probe-labeled peptide) was 630-650. For the same compound, the “Labeled Peptide” value (protein COX15 Cytochrome coxidase assembly protein COX15 homolo (Q7KZN9), residues of probe-labeled peptide) was 296-313, the “Labeled Peptide” value (protein CSNK1A1 Casein kinase I isoform alpha (P48729), residues of probe-labeled peptide) was 84-106 and the “Labeled Peptide” value (protein CSNK1A1 Casein kinase I isoform alpha, residues of probe-labeled peptide) was 84-106. The “Labeled Peptide” value (protein CSNK2B Casein kinase II subunit beta (P67870), residues of probe-labeled peptide) was 112-134, the “Labeled Peptide” value (protein CSNK2B Casein kinase II subunit beta, residues of probe-labeled peptide) was 112-134 and the “Labeled Peptide” value (protein DCAF7 DDB1- and CUL4-associated factor 7 (P61962), residues of probe-labeled peptide) was 82-96. The “Labeled Peptide” value (protein FAH Fumarylacetoacetase (P16930), residues of probe-labeled peptide) was 242-253, the “Labeled Peptide” value (protein FAM114A2 Protein FAM114A2 (Q9NRY5), residues of probe-labeled peptide) was 184-196 and the “Labeled Peptide” value (protein O94826 TOMM70A Mitochondrial import receptor subunit TOM70) was 475-494. The “Labeled Peptide” value (protein O96008 TOMM40 Mitochondrial import receptor subunit TOM40 homolog) was 278-293, the “Labeled Peptide” value (protein P05387 RPLP2 60S acidic ribosomal protein P2) was 50-61 and the “Labeled Peptide” value (protein P31948 STIP1 Stress-induced-phosphoprotein 1) was 416-429. For the same compound, the “Labeled Peptide” value (protein P46977 STT3A Dolichyl-diphosphooligosaccharide--protein glycosy) was 330-340, the “Labeled Peptide” value (protein PABPC1 Polyadenylate-binding protein 1, residues of the probe-labeled peptide) was 114-129 and the “Labeled Peptide” value (protein PCNA Proliferating cell nuclear antigen, residues of the probe-labeled peptide) was 118-138. The “Labeled Peptide” value (protein PCYOX1 Prenylcysteine oxidase 1 (Q9UHG3)) was 37-54, the “Labeled Peptide” value (protein PHB Prohibitin (P35232)) was 241-253 and the “Labeled Peptide” value (protein PLS3 Plastin-3 (P13797)) was 72-85. The “Labeled Peptide” value (protein PPP1CB Serine/threonine-protein phosphate PP1-alpha cat (P62140)) was 43-59, the “Labeled Peptide” value (protein PPP1CC Serine/threonine-protein phosphatase PP1-gamma cat, residues of the probe-labeled peptide) was 44-60 and the “Labeled Peptide” value (protein PPP1CC Serine/threonine-protein phosphate PP1-gamma cat (P36873)) was 44-60. The “Labeled Peptide” value (protein PRPF19 Pre-mRNA-processing factor 19 (Q9UMS4)) was 186-196, the “Labeled Peptide” value (protein PSMD3 26S proteasome non-ATPase regulatory subunit 3 (O43242)) was 426-440 and the “Labeled Peptide” value (protein PTBP1 Polypyrimidine tract-binding protein 1 (P26599)) was 219-238. For the same compound, the “Labeled Peptide” value (protein Q8NBX0 SCCPDH Saccharopine dehydrogenase-like oxidoreductase) was 145-167, the “Labeled Peptide” value (protein Q8TBP6 SLC25A40 Solute carrier family 25 member 40) was 136-152 and the “Labeled Peptide” value (protein Q8TCJ2 STT3B Dolichyl-diphosphooligosaccharide--protein glycosy) was 692-703. For the same compound, the “Labeled Peptide” value (protein Q9H2D1 SLC25A32 Mitochondrial folate transporter/carrier) was 118-145, the “Labeled Peptide” value (protein Q9H4I3 TRABD TraB domain-containing protein) was 235-253 and the “Labeled Peptide” value (protein Q9H061 TMEM126A Transmembrane protein 126A) was 85-105. The “Labeled Peptide” value (protein Q9NS69 TOMM22 Mitochondrial import receptor subunit TOM22 homolog) was 106-117, the “Labeled Peptide” value (protein Q9UBX3 SLC25A10 Mitochondrial dicarboxylate carrier) was 171-186 and the “Labeled Peptide” value (protein Q9Y230 RUVBL2 RuvB-like 2) was 315-330. The “Labeled Peptide” value (protein QIL1 Protein QIL1 (Q5XLP0)) was 15-36, the “Labeled Peptide” value (protein RAB7A Ras-related protein Rab-7a (P51149)) was 104-113 and the “Labeled Peptide” value (protein RAB7A Ras-related protein Rab-7a, residues of the probe-labeled peptide) was 104-113. For the same compound, the “Labeled Peptide” value (protein RABEPK Rab9 effector protein with kelch motifs (Q7Z6M1)) was 87-100, the “Labeled Peptide” value (protein RARS Arginine--tRNA ligase, cytoplasmic (P54136)) was 528-540 and the “Labeled Peptide” value (protein RARS Arginine--tRNA ligase, cytoplasmic, residues of the probe-labeled peptide) was 528-540. For the same compound, the “Labeled Peptide” value (protein RUVBL2 RuvB-like 2, residues of the probe-modified peptide) was 315-330, the “Labeled Peptide” value (protein TXNDC17 Thioredoxin domain-containing protein 17, residues of the probe-modified peptide) was 4-17 and the “Labeled Peptide” value (protein VPS33A Vacuolar protein sorting-associated protein 33A, residues of the probe-modified peptide) was 233-262. The “Labeled Peptide” value (protein YWHAQ 14-3-3 protein theta, residues of the probe-modified peptide) was 194-212, the “Labeled Peptide” value (residues of probe-labeled peptide on VDAC3 Voltage-dependent anion-slective channel protein, Accession # Q9Y277) was 164-174 and the “Labeled Peptide” value (residues of probe-labeled peptide on VMP1 Vacuole membrane protein 1, Accession # Q96GC9) was 214-243. For the same compound, the “Labeled Peptide” value (residues of probe-labeled peptide on VPS33A Vacuolar protein sorting-associated protein 33A, Accession # Q96AX1) was 233-262, the “Labeled Peptide” value (residues of probe-labeled peptide on VPS51 Vacuolar protein sorting-associated protein 51 hom, Accession # Q9UID3) was 742-763 and the “Labeled Peptide” value (residues of probe-labeled peptide on YWHAQ 14-3-3 protein theta, Accession # P27348) was 194-212.
